Laboratory results: US20250108038A1 (priority 2023, published 2025)

Assays:
[1] = molecular target: CYP2D6 (Homo sapiens, UniProt P10635); test: biochemical
[2] = Equilibrium dialysis control in DPBS and stability in DPBS, plasma and brain homogenate; format: in vitro ADME, mouse; conditions: for % Recovery / % Unbound: DPBS
Experimental: Samples of spiked plasma and blank buffer (Dulbecco's phosphate-buffered saline, DPBS) and spiked brain homogenate and blank DPBS added to opposing sides of a dialysis membrane were collected from triplicate equilibrium dialysis chambers prior to (t=0) and following 1, 2, 4 and 6 hours of incubation at 37° C. […] The LC-MS/MS method(s) for analytes (Compound I-19, Compound A and Compound B) was cross-qualified for the analysis of the DPBS samples.
A secondary stock solution of 200 μM (74.2 ug/mL) will be prepared in DMSO. This secondary stock solution will then be diluted 100-fold to 2 μM ([…]) with male CD-1 mouse plasma and brain homogenate (1:2 v/v brain:Dulbecco's phosphate buffered saline, pH 7-7.2) or buffer (DPBS).
To 2.97 mL aliquots of thawed mouse plasma or brain homogenate warmed to 37° C., 30 ul aliquots of the secondary stock solution of the test compound will be added for final concentrations of 2 μM (0.742 ug/mL). An appropriate volume of warmed buffer (DPBS) will also be spiked with the test compound at a concentration of 2 μM ([…]). Triplicate aliquots (50 μL) of each spiked plasma, brain homogenate and buffer solution will be collected prior to dialysis into labeled 1.5 mL polypropylene tubes and then stored at approximately −80° C. until bioanalysis.

[3] = tested on: C57BL/6 mice; test: SmartCage locomotor activity monitoring; format: in vivo, mouse; conditions: 0.3, 1.0, 3.0 and 10 mg/kg, IP, 24 h
[4] = molecular target: CYP2C19 (Homo sapiens, UniProt P33261)
[5] = tested on: Wistar rats; test: Five Choice Serial Reaction Time Task, standard version (STD), repeated administration; format: in vivo, Wistar rat; parameters: Latency (Correct) / Latency (Incorrect): unit not given here; conditions: for Latency (Correct) / Latency (Incorrect) / Magazine Head Entries / Omissions / Reward Latency / Trials Completed: STD
Source text: The behavioral tasks utilized were three versions of the rat Five Choice Serial Reaction Time Task (5C-SRTT), the standard version of the task (STD) with a fixed stimulus duration and a fixed intertrial interval, the variable stimulus duration (vSD) and the variable intertrial interval (vITI) version. The principal readout parameters in each task were the % Hit and the % correct choices (measures of sustained attention) and three measures of inhibitory response control (premature, perseverative, and timeout responses), although a number of additional outcome measures were obtained (see under Methods and Results below).
Twenty-four adult (approx. 10 months old) male Wistar rats (Envigo, Inc, Indianapolis, IN) were used in the study. […] Subjects were double housed in polycarbonate cages (45×30×18 cm) with corncob bedding in a vivarium of constant temperature (21-23° C.) and humidity (40-50%). […] All behavioral testing was performed during the light portion (9 a.m.-5 p.m.) of the light/dark cycle (Monday thru Friday). Animals were cared for in accordance with the Guide for the Care and Use of Laboratory Animals (U.S. National Institutes of Health) and the experimental protocols were approved by the Institutional Animal Care and Use Committee at Augusta University (Protocol #2010-0044).
The 5C-SRTT procedure (reviewed, Robbins, 2002. Psychopharmacology (Berl); 163(3-4):362-80) was conducted as we have described previously (Terry et al., 2014, Neurotoxicology and Teratology 44:18-29, 2014; Callahan et al., 2020, Neuropharmacology. August 15; 173:107994). […] Animals were trained in eight automated 5C-SRTT operant chambers (Med Associates, St. Albans, VT, USA), controlled by MedPC software (Med Associates). Briefly, each operant chamber was equipped with 5 apertures containing a photocell beam to detect nose pokes and a lamp (2.8 W) that could be illuminated randomly at varying durations. Food pellets (45 mg chow pellet, BioServ, Frenchtown, NJ, USA) were delivered automatically to a magazine, located on the opposite wall to the nose pokes, that was also equipped with a light that turned on to indicate that a pellet had been dispensed. The house-light remained on for the entire session unless an error or omission occurred. Training sessions began with the delivery of a food reward and retrieval triggered the first trial. […] Sessions ended when 40 minutes had lapsed or 100 trials had been completed.
For this study, subjects were re-trained 5 days per week until they re-established a stable performance criteria with a fixed (1.0 sec) stimulus duration and a fixed ITI (5 sec) of 70-75% accuracy, <20% omissions and completion of all 100 trials for 5 consecutive days. Upon meeting these performance criteria animals were trained for one additional week and two groups of subjects (N=12) were assembled and balanced according to their performance accuracy, specifically the % Hit evaluation, which takes into account correct responses as well as all incorrect responses including the number of omissions. […] The vSD version of the task increases the attentional load while the vITI increases impulsivity-like behavior. The following outcome measures and behavioral domains were assessed: % Hit and % correct=sustained attention; omissions=attention/motivation; premature responses=impulsivity; perseverative responses=compulsivity; timeout responses=cognitive inflexibility; magazine head entries=appetitive motivation and compulsivity-like behavior; response latencies=information processing speed and/or motivation. For the STD version of the task, the stimulus duration (SD) was fixed at 1.0 sec and the ITI was fixed at 5 sec. In the vSD version of the task the following stimulus durations were presented in a pseudorandom manner: 0.3, 0.6, and 0.9 sec. In the vITI version, 2.5, 5.0, and 10.0 sec ITIs were employed in a pseudorandom manner. […]

[6] = dialysis time 1 h, 2 μM, 37° C.
[7] = dialysis time 2 h, 2 μM, 37° C.
[8] = dialysis time 4 h, 2 μM, 37° C.
[9] = dialysis time 6 h, 2 μM, 37° C.
[10] = Group 1, 0.1 mg/kg, Drug Exp period, mean ± SEM
[11] = Group 1, 0.1 mg/kg, Post-Drug Exp (vehicle washout) period, mean ± SEM
[12] = Group 2, 0.3 mg/kg, Drug Exp period, mean ± SEM
[13] = Group 2, 0.3 mg/kg, Post-Drug Exp (vehicle washout) period, mean ± SEM

Sequence of CYP2C19 (P33261 whole entry): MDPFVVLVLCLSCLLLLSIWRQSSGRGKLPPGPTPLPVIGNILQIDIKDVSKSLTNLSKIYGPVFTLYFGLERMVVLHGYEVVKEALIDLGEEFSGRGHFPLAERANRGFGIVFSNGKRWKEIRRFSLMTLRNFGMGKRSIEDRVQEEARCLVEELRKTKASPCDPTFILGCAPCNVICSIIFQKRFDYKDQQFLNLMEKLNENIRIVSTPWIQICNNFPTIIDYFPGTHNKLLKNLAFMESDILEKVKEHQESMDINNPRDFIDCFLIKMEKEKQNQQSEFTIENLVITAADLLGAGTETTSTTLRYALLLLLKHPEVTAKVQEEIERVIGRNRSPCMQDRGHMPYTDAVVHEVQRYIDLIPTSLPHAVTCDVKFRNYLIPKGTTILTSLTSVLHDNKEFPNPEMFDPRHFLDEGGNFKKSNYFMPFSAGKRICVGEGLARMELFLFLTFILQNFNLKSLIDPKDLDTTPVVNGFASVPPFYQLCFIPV
Sequence of CYP2D6 (P10635 whole entry): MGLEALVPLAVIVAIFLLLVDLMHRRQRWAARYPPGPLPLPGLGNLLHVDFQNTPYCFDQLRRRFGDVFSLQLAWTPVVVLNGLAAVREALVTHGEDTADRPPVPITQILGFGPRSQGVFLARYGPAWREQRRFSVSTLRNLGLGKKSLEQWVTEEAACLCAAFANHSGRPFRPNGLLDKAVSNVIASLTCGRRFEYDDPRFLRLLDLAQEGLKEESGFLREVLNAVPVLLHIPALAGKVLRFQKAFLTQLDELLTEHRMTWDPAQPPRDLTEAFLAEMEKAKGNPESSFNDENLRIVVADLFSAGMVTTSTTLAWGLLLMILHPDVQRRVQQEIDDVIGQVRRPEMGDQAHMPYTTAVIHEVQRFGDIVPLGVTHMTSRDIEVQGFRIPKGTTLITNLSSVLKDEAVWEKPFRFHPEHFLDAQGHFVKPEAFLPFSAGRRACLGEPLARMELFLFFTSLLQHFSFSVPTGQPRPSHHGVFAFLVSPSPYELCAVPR

## OC1(c2ccc(Cl)cc2)c2ccccc2C2=NCCN21 (stereo not drawn) [Compound A, 5-(4-chlorophenyl)-2,3-dihydroimidazo[1,2-b]isoindol-5-ol, reference compound]
[1]
  IC50: 4.16 µM

## Clc1ccc(C2(OCC3OCCO3)c3ccccc3C3=NCCN32)cc1 (stereo not drawn) [Compound I-19]
[2]; 2 μM, 37° C., 6 hours
  Stability in DPBS, plasma and brain homogenate: unstable in all three matrices
[2]; 2 μM, 6 hours of dialysis
  % unbound in DPBS: 94.0±5.12%
[2]; 6 hours of dialysis
  % recovery, DPBS alone: 20.2±0.461%
[2]; [6]
  % Recovery: 64.7 ± 3.04%
  % Unbound: 40.3 ± 3.69%
[2]; [7]
  % Recovery: 55.5 ± 2.08%
  % Unbound: 81.9 ± 5.87%
[2]; [8]
  % Recovery: 32.6 ± 1.05%
  % Unbound: 91.1 ± 4.19%
[2]; [9]
  % Recovery: 20.2 ± 0.461%
  % Unbound: 94.0 ± 5.12%
[3]
  home cage activity (activity, rearing, velocity, distance): no significant effect on the diurnal or nocturnal activity measures
[4]; 2C19, Mephenytoin, at 50 μM
  Inhibition at Highest Test Article Concentration: 83.2 at 50 μM %
[4]; microsomes
  IC50: 17.3 µM
[5]; [10]
  Latency (Correct): 0.94
  Latency (Incorrect): 2.15
  Magazine Head Entries: 150.65 ± 9.46
  Omissions: 9.43
  Reward Latency: 3.53
  Trials Completed: 96.99 ± 2.12
[5]; [11]
  Latency (Correct): 0.87 ± 0.03
  Latency (Incorrect): 1.86 ± 0.09
  Magazine Head Entries: 168.06 ± 13.60
  Omissions: 4.46 ± 0.81
  Reward Latency: 2.64
  Trials Completed: 97.65 ± 2.23
[5]; [12]
  Latency (Correct): 0.92
  Latency (Incorrect): 2.28
  Magazine Head Entries: 183.89 ± 32.19
  Omissions: 8.10 ± 2.32^+
  Reward Latency: 4.08
  Trials Completed: 98.44 ± 0.95
[5]; [13]
  Latency (Correct): 0.78
  Latency (Incorrect): 1.61 ± 0.07
  Magazine Head Entries: 211.72 ± 32.77
  Omissions: 3.26 ± 0.95
  Reward Latency: 2.27
  Trials Completed: 100.00
[5]; repeated 0.1 and 0.3 mg/kg IP
  % Hit and % correct: did not significantly affect either the % Hit or the % correct
  premature responses: reduced the number of premature responses compared to pre- and post-drug conditions
[5]; repeated 0.1 and 0.3 mg/kg IP, vSD and vITI versions
  Omissions: modest increases in the number of omissions
